# Experimental data taken from patent US20260234157A1, “COMPOUND AND METHOD FOR TARGETED DEGRADATION OF ANDROGEN RECEPTOR” (Gan & Lee Pharmaceuticals Co., Ltd., priority 2023, published 2026).
# Where a chain is given by its changes, count along the chain named.
# Target: T1, AR protein (Homo sapiens, UniProt P10275, T878A)
# T1 construct: degradation activity of the compounds disclosed in the present disclosure on AR protein in LNCaP cells; host or cells: LNCaP FGC
# T1 sequence (P10275 1-920 T878A): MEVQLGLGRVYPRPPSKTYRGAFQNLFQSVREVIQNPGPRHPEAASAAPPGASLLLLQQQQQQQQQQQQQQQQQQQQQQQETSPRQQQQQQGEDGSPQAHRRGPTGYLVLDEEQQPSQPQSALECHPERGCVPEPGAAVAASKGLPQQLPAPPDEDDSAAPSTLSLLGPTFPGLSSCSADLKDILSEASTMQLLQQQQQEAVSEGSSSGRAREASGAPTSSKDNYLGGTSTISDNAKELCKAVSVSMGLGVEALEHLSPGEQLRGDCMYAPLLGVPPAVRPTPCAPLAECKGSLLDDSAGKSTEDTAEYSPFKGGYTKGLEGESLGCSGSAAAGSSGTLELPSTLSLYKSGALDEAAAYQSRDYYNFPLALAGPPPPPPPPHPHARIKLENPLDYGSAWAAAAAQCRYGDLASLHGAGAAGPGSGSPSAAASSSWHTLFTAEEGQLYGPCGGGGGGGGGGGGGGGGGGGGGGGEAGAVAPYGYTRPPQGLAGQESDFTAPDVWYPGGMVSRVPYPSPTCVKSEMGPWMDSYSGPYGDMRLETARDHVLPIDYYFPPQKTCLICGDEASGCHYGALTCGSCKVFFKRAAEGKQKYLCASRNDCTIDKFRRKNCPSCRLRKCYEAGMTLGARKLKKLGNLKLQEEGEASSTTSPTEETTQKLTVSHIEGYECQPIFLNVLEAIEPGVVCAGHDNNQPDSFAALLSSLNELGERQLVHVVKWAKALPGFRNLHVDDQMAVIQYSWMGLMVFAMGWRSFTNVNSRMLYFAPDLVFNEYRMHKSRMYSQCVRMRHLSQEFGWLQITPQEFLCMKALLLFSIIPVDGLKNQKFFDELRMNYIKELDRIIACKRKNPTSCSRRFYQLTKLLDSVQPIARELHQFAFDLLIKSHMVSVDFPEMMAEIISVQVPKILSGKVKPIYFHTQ
# Assay: Degradation of AR protein in LNCaP cells (Western blot)
# Format: cell-based
# Conditions: LNCaP cells, compound 10 nM, 8 hours, Western blot grayscale, GAPDH internal reference; read-out: Degradation rates of the AR protein in LNCaP cells, 10 nM (%)
# Summary of the method: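 Percent AR degradation was derived from GAPDH-normalised Western blot band intensities (infrared detection) in LNCaP lysates.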
row,SMILES,inhibition at 0.01 µM [%]
1,N#Cc1ccc(O[C@H]2CC[C@H](NC(=O)c3ccc(N4CCC5(CCC(N6CCC7(CC6)COc6cc8c(cc67)C(=O)N(C6CCC(=O)NC6=O)C8=O)CC5)CC4)nn3)CC2)cc1Cl (stereo partly drawn) [Compound 51],13
2,N#Cc1ccc(O[C@H]2CC[C@H](NC(=O)c3ccc(N4CCC5(CC4)COc4cc6c(cc45)C(=O)N(C4CCC(=O)NC4=O)C6=O)nn3)CC2)cc1Cl (stereo partly drawn) [Compound 52],43
3,N#Cc1ccc(O[C@H]2CC[C@H](NC(=O)c3ccc(N4CC5(CCC(N6CCC7(CC6)COc6cc8c(cc67)C(=O)N(C6CCC(=O)NC6=O)C8=O)CC5)C4)nn3)CC2)cc1Cl (stereo partly drawn) [Compound 53],69
4,N#Cc1ccc(O[C@H]2CC[C@H](NC(=O)c3ccc(N4CCC5(CC(N6CCC7(CC6)COc6cc8c(cc67)C(=O)N(C6CCC(=O)NC6=O)C8=O)C5)C4)nn3)CC2)cc1Cl (stereo partly drawn) [Compound 54],24
5,N#Cc1ccc(O[C@H]2CC[C@H](NC(=O)c3ccc(N4CC(CN5CCC6(CC5)COc5cc7c(cc56)C(=O)N(C5CCC(=O)NC5=O)C7=O)C4)nn3)CC2)cc1Cl (stereo partly drawn) [Compound 55],44
6,N#Cc1ccc(O[C@H]2CC[C@H](NC(=O)c3ccc(N4CCC(CN5CCC6(CC5)COc5cc7c(cc56)C(=O)N(C5CCC(=O)NC5=O)C7=O)CC4)nn3)CC2)cc1Cl (stereo partly drawn) [Compound 56],44

# Same assay, conditions: LNCaP cells, compound 100 nM, 8 hours, Western blot grayscale, GAPDH internal reference; read-out: Degradation rates of the AR protein in LNCaP cells, 100 nM (%)
row,SMILES,inhibition at 0.1 µM [%]
1,N#Cc1ccc(O[C@H]2CC[C@H](NC(=O)c3ccc(N4CCC5(CCC(N6CCC7(CC6)COc6cc8c(cc67)C(=O)N(C6CCC(=O)NC6=O)C8=O)CC5)CC4)nn3)CC2)cc1Cl (stereo partly drawn) [Compound 51],49
2,N#Cc1ccc(O[C@H]2CC[C@H](NC(=O)c3ccc(N4CCC5(CC4)COc4cc6c(cc45)C(=O)N(C4CCC(=O)NC4=O)C6=O)nn3)CC2)cc1Cl (stereo partly drawn) [Compound 52],22
3,N#Cc1ccc(O[C@H]2CC[C@H](NC(=O)c3ccc(N4CC5(CCC(N6CCC7(CC6)COc6cc8c(cc67)C(=O)N(C6CCC(=O)NC6=O)C8=O)CC5)C4)nn3)CC2)cc1Cl (stereo partly drawn) [Compound 53],85
4,N#Cc1ccc(O[C@H]2CC[C@H](NC(=O)c3ccc(N4CCC5(CC(N6CCC7(CC6)COc6cc8c(cc67)C(=O)N(C6CCC(=O)NC6=O)C8=O)C5)C4)nn3)CC2)cc1Cl (stereo partly drawn) [Compound 54],76
5,N#Cc1ccc(O[C@H]2CC[C@H](NC(=O)c3ccc(N4CC(CN5CCC6(CC5)COc5cc7c(cc56)C(=O)N(C5CCC(=O)NC5=O)C7=O)C4)nn3)CC2)cc1Cl (stereo partly drawn) [Compound 55],69
6,N#Cc1ccc(O[C@H]2CC[C@H](NC(=O)c3ccc(N4CCC(CN5CCC6(CC5)COc5cc7c(cc56)C(=O)N(C5CCC(=O)NC5=O)C7=O)CC4)nn3)CC2)cc1Cl (stereo partly drawn) [Compound 56],77

# Target: T2, AR protein (Homo sapiens, UniProt P10275)
# T2 construct: degradation activity of the compounds disclosed in the present disclosure on AR protein in VCaP cells; host or cells: VCaP
# T2 sequence (P10275 1-920): T1 sequence (P10275 1-920 T878A) with A878T
# Assay: Degradation of AR protein in VCaP cells (Western blot)
# Format: cell-based
# Conditions: compound at 10 nM, 8 hours, read-out: Degradation rate of the AR protein in VCaP cells, 10 nM (%)
# Summary of the method: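 Western blot readout: AR band grayscale normalised to GAPDH, used to derive degradation rate. Lysates came from VCaP cells exposed to compound for 8 h, with solvent controls run in parallel.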
row,SMILES,inhibition at 0.01 µM [%]
1,N#Cc1ccc(O[C@H]2CC[C@H](NC(=O)c3ccc(N4CCC5(CCC(N6CCC7(CC6)COc6cc8c(cc67)C(=O)N(C6CCC(=O)NC6=O)C8=O)CC5)CC4)nn3)CC2)cc1Cl (stereo partly drawn) [Compound 51],83
2,N#Cc1ccc(O[C@H]2CC[C@H](NC(=O)c3ccc(N4CCC5(CC4)COc4cc6c(cc45)C(=O)N(C4CCC(=O)NC4=O)C6=O)nn3)CC2)cc1Cl (stereo partly drawn) [Compound 52],16
3,N#Cc1ccc(O[C@H]2CC[C@H](NC(=O)c3ccc(N4CC5(CCC(N6CCC7(CC6)COc6cc8c(cc67)C(=O)N(C6CCC(=O)NC6=O)C8=O)CC5)C4)nn3)CC2)cc1Cl (stereo partly drawn) [Compound 53],62
4,N#Cc1ccc(O[C@H]2CC[C@H](NC(=O)c3ccc(N4CCC5(CC(N6CCC7(CC6)COc6cc8c(cc67)C(=O)N(C6CCC(=O)NC6=O)C8=O)C5)C4)nn3)CC2)cc1Cl (stereo partly drawn) [Compound 54],75
5,N#Cc1ccc(O[C@H]2CC[C@H](NC(=O)c3ccc(N4CC(CN5CCC6(CC5)COc5cc7c(cc56)C(=O)N(C5CCC(=O)NC5=O)C7=O)C4)nn3)CC2)cc1Cl (stereo partly drawn) [Compound 55],77
6,N#Cc1ccc(O[C@H]2CC[C@H](NC(=O)c3ccc(N4CCC(CN5CCC6(CC5)COc5cc7c(cc56)C(=O)N(C5CCC(=O)NC5=O)C7=O)CC4)nn3)CC2)cc1Cl (stereo partly drawn) [Compound 56],79

# Same assay, conditions: compound at 100 nM, 8 hours, read-out: Degradation rate of the AR protein in VCaP cells, 100 nM (%)
row,SMILES,inhibition at 0.1 µM [%]
1,N#Cc1ccc(O[C@H]2CC[C@H](NC(=O)c3ccc(N4CCC5(CCC(N6CCC7(CC6)COc6cc8c(cc67)C(=O)N(C6CCC(=O)NC6=O)C8=O)CC5)CC4)nn3)CC2)cc1Cl (stereo partly drawn) [Compound 51],90
2,N#Cc1ccc(O[C@H]2CC[C@H](NC(=O)c3ccc(N4CCC5(CC4)COc4cc6c(cc45)C(=O)N(C4CCC(=O)NC4=O)C6=O)nn3)CC2)cc1Cl (stereo partly drawn) [Compound 52],26
3,N#Cc1ccc(O[C@H]2CC[C@H](NC(=O)c3ccc(N4CC5(CCC(N6CCC7(CC6)COc6cc8c(cc67)C(=O)N(C6CCC(=O)NC6=O)C8=O)CC5)C4)nn3)CC2)cc1Cl (stereo partly drawn) [Compound 53],71
4,N#Cc1ccc(O[C@H]2CC[C@H](NC(=O)c3ccc(N4CCC5(CC(N6CCC7(CC6)COc6cc8c(cc67)C(=O)N(C6CCC(=O)NC6=O)C8=O)C5)C4)nn3)CC2)cc1Cl (stereo partly drawn) [Compound 54],85
5,N#Cc1ccc(O[C@H]2CC[C@H](NC(=O)c3ccc(N4CC(CN5CCC6(CC5)COc5cc7c(cc56)C(=O)N(C5CCC(=O)NC5=O)C7=O)C4)nn3)CC2)cc1Cl (stereo partly drawn) [Compound 55],80
6,N#Cc1ccc(O[C@H]2CC[C@H](NC(=O)c3ccc(N4CCC(CN5CCC6(CC5)COc5cc7c(cc56)C(=O)N(C5CCC(=O)NC5=O)C7=O)CC4)nn3)CC2)cc1Cl (stereo partly drawn) [Compound 56],88

# Tested on: LNCaP FGC cells
# Assay: Inhibition of proliferation of LNCaP cells (WST-8)
# Format: cell-based
# Conditions: Homo sapiens, LNCaP, 96 h, LNCaP FGC cells, 96 hours, WST-8 absorbance at 450 nm; read-out: IC50 for inhibiting the proliferation of LNCaP cells
# Protocol: The cells were cultured in a cell culture incubator with 5% CO2 at 37° C. overnight. […] On the sixth day, 96 well plates were taken out, and 20 μL of WST-8 (Beytime, C0040) reagent was added to each well.
row,SMILES,IC50 [nM]
1,N#Cc1ccc(O[C@H]2CC[C@H](NC(=O)c3ccc(N4CCC5(CCC(N6CCC7(CC6)COc6cc8c(cc67)C(=O)N(C6CCC(=O)NC6=O)C8=O)CC5)CC4)nn3)CC2)cc1Cl (stereo partly drawn) [Compound 51],400
2,N#Cc1ccc(O[C@H]2CC[C@H](NC(=O)c3ccc(N4CCC5(CC4)COc4cc6c(cc45)C(=O)N(C4CCC(=O)NC4=O)C6=O)nn3)CC2)cc1Cl (stereo partly drawn) [Compound 52],4500
3,N#Cc1ccc(O[C@H]2CC[C@H](NC(=O)c3ccc(N4CC5(CCC(N6CCC7(CC6)COc6cc8c(cc67)C(=O)N(C6CCC(=O)NC6=O)C8=O)CC5)C4)nn3)CC2)cc1Cl (stereo partly drawn) [Compound 53],380
4,N#Cc1ccc(O[C@H]2CC[C@H](NC(=O)c3ccc(N4CCC5(CC(N6CCC7(CC6)COc6cc8c(cc67)C(=O)N(C6CCC(=O)NC6=O)C8=O)C5)C4)nn3)CC2)cc1Cl (stereo partly drawn) [Compound 54],1700
5,N#Cc1ccc(O[C@H]2CC[C@H](NC(=O)c3ccc(N4CC(CN5CCC6(CC5)COc5cc7c(cc56)C(=O)N(C5CCC(=O)NC5=O)C7=O)C4)nn3)CC2)cc1Cl (stereo partly drawn) [Compound 55],1000
6,N#Cc1ccc(O[C@H]2CC[C@H](NC(=O)c3ccc(N4CCC(CN5CCC6(CC5)COc5cc7c(cc56)C(=O)N(C5CCC(=O)NC5=O)C7=O)CC4)nn3)CC2)cc1Cl (stereo partly drawn) [Compound 56],350

# Tested on: VCaP cells
# Assay: Inhibition of proliferation of VCaP cells (WST-8)
# Format: cell-based
# Conditions: Homo sapiens; VCaP cells, 168 hours, WST-8 absorbance at 450 nm; read-out: IC50 for inhibiting the proliferation of VCaP cells
# Summary of the method: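 Proliferation was read by WST-8 on day nine. Cells were VCaP FGC, seeded at 15000 cells per well in 10% FBS DMEM and kept at 37° C with 5% CO2.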
row,SMILES,IC50 [nM]
1,N#Cc1ccc(O[C@H]2CC[C@H](NC(=O)c3ccc(N4CCC5(CCC(N6CCC7(CC6)COc6cc8c(cc67)C(=O)N(C6CCC(=O)NC6=O)C8=O)CC5)CC4)nn3)CC2)cc1Cl (stereo partly drawn) [Compound 51],18
2,N#Cc1ccc(O[C@H]2CC[C@H](NC(=O)c3ccc(N4CCC5(CC4)COc4cc6c(cc45)C(=O)N(C4CCC(=O)NC4=O)C6=O)nn3)CC2)cc1Cl (stereo partly drawn) [Compound 52],6800
3,N#Cc1ccc(O[C@H]2CC[C@H](NC(=O)c3ccc(N4CC5(CCC(N6CCC7(CC6)COc6cc8c(cc67)C(=O)N(C6CCC(=O)NC6=O)C8=O)CC5)C4)nn3)CC2)cc1Cl (stereo partly drawn) [Compound 53],43
4,N#Cc1ccc(O[C@H]2CC[C@H](NC(=O)c3ccc(N4CCC5(CC(N6CCC7(CC6)COc6cc8c(cc67)C(=O)N(C6CCC(=O)NC6=O)C8=O)C5)C4)nn3)CC2)cc1Cl (stereo partly drawn) [Compound 54],47
5,N#Cc1ccc(O[C@H]2CC[C@H](NC(=O)c3ccc(N4CC(CN5CCC6(CC5)COc5cc7c(cc56)C(=O)N(C5CCC(=O)NC5=O)C7=O)C4)nn3)CC2)cc1Cl (stereo partly drawn) [Compound 55],83
6,N#Cc1ccc(O[C@H]2CC[C@H](NC(=O)c3ccc(N4CCC(CN5CCC6(CC5)COc5cc7c(cc56)C(=O)N(C5CCC(=O)NC5=O)C7=O)CC4)nn3)CC2)cc1Cl (stereo partly drawn) [Compound 56],60
